Results on 10 compounds are retold here after BindingDB's records for doi:10.1016/j.bmcl.2005.11.092 (Astrazeneca R&D, 2006).

Molecules are shown by their SMILES.

This assay deals with Metabotropic glutamate receptor 5 (Homo sapiens, UniProt P41594). Briefly: Inhibition of glutamate-induced calcium influx in human mGluR5d by FLIPR.
Chain of Metabotropic glutamate receptor 5 (P41594 whole entry): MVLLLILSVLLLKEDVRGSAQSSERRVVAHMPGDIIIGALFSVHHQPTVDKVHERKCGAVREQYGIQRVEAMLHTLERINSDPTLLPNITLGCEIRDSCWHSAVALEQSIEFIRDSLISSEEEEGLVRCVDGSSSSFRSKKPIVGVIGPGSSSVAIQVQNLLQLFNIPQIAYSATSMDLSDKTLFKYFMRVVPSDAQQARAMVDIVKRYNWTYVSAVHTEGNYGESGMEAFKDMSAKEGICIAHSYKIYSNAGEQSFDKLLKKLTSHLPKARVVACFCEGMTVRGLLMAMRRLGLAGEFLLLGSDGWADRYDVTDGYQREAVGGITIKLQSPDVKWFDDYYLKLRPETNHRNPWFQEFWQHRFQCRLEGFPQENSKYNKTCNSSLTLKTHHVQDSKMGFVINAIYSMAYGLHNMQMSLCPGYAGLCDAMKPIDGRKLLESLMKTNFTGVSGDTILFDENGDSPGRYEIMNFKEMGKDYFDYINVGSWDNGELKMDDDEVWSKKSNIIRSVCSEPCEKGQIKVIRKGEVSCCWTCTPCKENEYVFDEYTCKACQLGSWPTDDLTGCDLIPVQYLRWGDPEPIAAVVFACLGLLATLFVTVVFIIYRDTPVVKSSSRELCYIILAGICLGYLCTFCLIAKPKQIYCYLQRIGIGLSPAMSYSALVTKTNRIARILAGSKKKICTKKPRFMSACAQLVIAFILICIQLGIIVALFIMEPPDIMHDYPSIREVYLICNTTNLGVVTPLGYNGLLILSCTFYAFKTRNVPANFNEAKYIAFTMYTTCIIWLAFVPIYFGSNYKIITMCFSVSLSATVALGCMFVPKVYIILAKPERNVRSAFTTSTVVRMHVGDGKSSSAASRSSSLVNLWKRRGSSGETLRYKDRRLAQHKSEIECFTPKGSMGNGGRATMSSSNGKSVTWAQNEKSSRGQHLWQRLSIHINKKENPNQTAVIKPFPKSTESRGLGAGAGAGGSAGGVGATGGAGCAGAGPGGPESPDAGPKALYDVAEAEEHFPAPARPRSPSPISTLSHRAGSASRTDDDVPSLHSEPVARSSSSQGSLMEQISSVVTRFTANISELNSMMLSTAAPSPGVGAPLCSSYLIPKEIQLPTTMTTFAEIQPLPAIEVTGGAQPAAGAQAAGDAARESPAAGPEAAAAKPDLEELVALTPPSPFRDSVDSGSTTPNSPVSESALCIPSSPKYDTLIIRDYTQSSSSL
For orientation: IC50 means the concentration that gives 50% inhibition. For `Cn1cc(O)nc1NC(=O)Nc1cccs1` [1-(1-methyl-4-oxoimidazolidin-2-ylidene)-3-(thiophen-2-yl)urea], the IC50 came out at 4.9 µM.
Regarding `Cc1ccccc1NC(=O)Nc1nc(O)c2n1CCC2` [1-(1-oxo-hexahydropyrrolo[1,2-e]imidazol-3-ylidene)-3-o-tolylurea], the IC50 is over 10 µM.
With `Cc1cccc(NC(=O)Nc2nc(O)c3n2CCC3)c1C` [1-(2,3-dimethylphenyl)-3-(1-oxo-hexahydropyrrolo[1,2-e]imidazol-3-ylidene)urea] the figure was over 10 µM; with `Cc1ccc(C)c(NC(=O)Nc2nc(O)c3n2CCC3)c1` [1-(2,5-dimethylphenyl)-3-(1-oxo-hexahydropyrrolo[1,2-e]imidazol-3-ylidene)urea], over 10 µM.
As to `Cn1cc(O)nc1NC(=O)Nc1cc(Cl)cc(Cl)c1` [1-(3,5-dichlorophenyl)-3-(1-methyl-4-oxoimidazolidin-2-ylidene)urea], the IC50 was over 10 µM.
Turning to `Cc1ccc(NC(=O)Nc2nc(O)c3n2CCC3)cc1Cl` [1-(3-chloro-4-methylphenyl)-3-(1-oxo-hexahydropyrrolo[1,2-e]imidazol-3-ylidene)urea], the IC50 is over 10 µM.
`O=C(Nc1ccc(Cl)cc1)Nc1nc(O)c2n1CCC2` [1-(4-chlorophenyl)-3-(1-oxo-hexahydropyrrolo[1,2-e]imidazol-3-ylidene)urea]: the IC50 is over 10 µM.
`CCCCCCNC(=O)Nc1nc(O)cn1C` [1-hexyl-3-(1-methyl-4-oxoimidazolidin-2-ylidene)urea]: the IC50 is over 10 µM.
With `Cn1cc(O)nc1NC(=O)Nc1ccccc1` [(E)-1-(1-methyl-4-oxoimidazolidin-2-ylidene)-3-phenylurea] the figure was 4.9 µM.
With `COC(=O)c1cccc(NC(=O)Nc2nc(O)cn2C)c1` [methyl 3-(3-(1-methyl-4-oxoimidazolidin-2-ylidene)ureido)benzoate] the figure was over 10 µM.
